Measurements published in BindingDB's records for doi:10.1002/bip.20588 (University of California Davis, 2006).
pIC50: −log10 of the molar value. *1 amine or outer side, *2 acyl side, *3 side chain or, on linkers, in order; H or OH if unused. Where a SMILES comes first, the peptide text is derived from it. [ ]: non-standard residue; d: D form. The star is where a group is joined. ξ: configuration not given here. Pro(5R-Ph) = O=C(O)[C@@H]1CC[C@H](c2ccccc2)N1; X5 = O=C(c1ccc(-c2ccc(N[*:1])cc2)o1)[*:2]; X7 = O=C(c1ccc(-c2cccc(N[*:1])c2)o1)[*:2]; Leu(4,5-dehydro) = C=C(C)C[C@H](N)C(=O)O; X14 = Cc1ccccc1NC(=O)Nc1ccc(N*)cc1; X9 = Cc1ccccc1NC(=O)Nc1cccc(N*)c1; Ala(cPr) = N[C@@H](CC1CC1)C(=O)O; X1 = O=C(Cc1ccc(N[*:1])cc1)[*:2]; Ile(3ξ) = CCC(C)[C@H](N)C(=O)O; NH(2-Me-phenyl) = Cc1ccccc1N*; Tle = CC(C)(C)[C@H](N)C(=O)O; hLeu = CC(C)CC[C@H](N)C(=O)O; Isovaleryl = CC(C)CC(=O)*; Dpg = CCCC(N)(CCC)C(=O)O; Heptanoyl = CCCCCCC(=O)*; Nle = CCCC[C@H](N)C(=O)O; Dap = NC[C@H](N)C(=O)O; X11 = CC(C)c1ccccc1N*; CO = O=C([*:1])[*:2]

Target: Integrin alpha-4/beta-1 (Homo sapiens, UniProt P05556+P13612, T112H)
Assay: Jurkat Cell Adhesion Inhibition Assay
Description: Binding affinities (IC50) of the ligands were studied in a Jurkat cell adhesion assay by inhibiting the alpha-4/beta-1 mediated cell adhesion to CS-1 peptides. The 96-well plates were coated with neutravidin, followed by biotinconjugated CS-1 peptides. Jurkat cells with series dilutions of tested ligands in binding buffer were added and allowed to bind for 30 min. Bound cells were recorded using a 96-well plate reader at 570 nm. IC50 values were calculated from inhibition curves resulting from the concentration-dependent inhibition

Row | pIC50 | pIC50 (pH 7.5, 22 °C) | SMILES
1 | 6.27 | – | CCCC[C@H](NC(=O)Cc1ccc(NC(=O)Nc2ccccc2C(C)C)cc1)C(=O)N[C@@H](CC(=O)O)C(=O)N[C@H](C(=O)N1CCC[C@H]1C(N)=O)C(C)CC (stereo partly drawn) [(3S)-3-{[(2S,3S)-1-[(2S)-2-carbamoylpyrrolidin-1-yl]-3-methyl-1-oxopentan-2-yl]carbamoyl}-3-[(2S)-2-{1-[4-({[2-(propan-2-yl)phenyl]carbamoyl}amino)phenyl]acetamido}hexanamido]propanoic acid] ({X11-CO}-[X1][Nle]D[Ile(3ξ)]P-NH2)
2 | 7.27 | – | CCCC[C@H](NC(=O)Nc1ccc(NC(=O)Nc2ccccc2C)cc1)C(=O)N[C@@H](CC(=O)O)C(=O)N[C@H](C(=O)N1CCC[C@H]1C(N)=O)C(C)CC (stereo partly drawn) [(3S)-3-{[(2S,3S)-1-[(2S)-2-carbamoylpyrrolidin-1-yl]-3-methyl-1-oxopentan-2-yl]carbamoyl}-3-[(2S)-2-{[(4-{[(2-methylphenyl)carbamoyl]amino}phenyl)carbamoyl]amino}hexanamido]propanoic acid] ({X14-CO}-[Nle]D[Ile(3ξ)]P-NH2)
3 | 8.15 | – | CCC(C)[C@H](NC(=O)[C@H](CC(=O)O)NC(=O)[C@@H](NC(=O)Cc1ccc(NC(=O)Nc2ccccc2C)cc1)C(C)(C)C)C(=O)N1CCC[C@H]1C(N)=O (stereo partly drawn) [(3S)-3-{[(2S,3S)-1-[(2S)-2-carbamoylpyrrolidin-1-yl]-3-methyl-1-oxopentan-2-yl]carbamoyl}-3-[(2S)-3,3-dimethyl-2-[1-(4-{[(2-methylphenyl)carbamoyl]amino}phenyl)acetamido]butanamido]propanoic acid] ({NH(2-Me-phenyl)-CO}-[X1][Tle]D[Ile(3ξ)]P-NH2)
4 | 7.20 | – | CCC(C)[C@H](NC(=O)[C@H](CC(=O)O)NC(=O)[C@H](CNC(=O)CC(C)C)NC(=O)Cc1ccc(NC(=O)Nc2ccccc2C)cc1)C(=O)N1CCC[C@H]1C(N)=O (stereo partly drawn) [(3S)-3-{[(2S,3S)-1-[(2S)-2-carbamoylpyrrolidin-1-yl]-3-methyl-1-oxopentan-2-yl]carbamoyl}-3-[(2S)-3-(3-methylbutanamido)-2-[1-(4-{[(2-methylphenyl)carbamoyl]amino}phenyl)acetamido]propanamido]propanoic acid] ({NH(2-Me-phenyl)-CO}-[X1][Dap](Isovaleryl)D[Ile(3ξ)]P-NH2)
5 | 7.19 | – | CCC(C)[C@H](NC(=O)[C@H](CC(=O)O)NC(=O)[C@H](CC1CC1)NC(=O)Cc1ccc(NC(=O)Nc2ccccc2C)cc1)C(=O)N1CCC[C@H]1C(N)=O (stereo partly drawn) [(3S)-3-{[(2S,3S)-1-[(2S)-2-carbamoylpyrrolidin-1-yl]-3-methyl-1-oxopentan-2-yl]carbamoyl}-3-[(2S)-3-cyclopropyl-2-[1-(4-{[(2-methylphenyl)carbamoyl]amino}phenyl)acetamido]propanamido]propanoic acid] ({NH(2-Me-phenyl)-CO}-[X1][Ala(cPr)]D[Ile(3ξ)]P-NH2)
6 | 6.51 | – | CCCCCCC(=O)NC[C@H](NC(=O)Cc1ccc(NC(=O)Nc2ccccc2C)cc1)C(=O)N[C@@H](CC(=O)O)C(=O)N[C@H](C(=O)N1CCC[C@H]1C(N)=O)C(C)CC (stereo partly drawn) [(3S)-3-{[(2S,3S)-1-[(2S)-2-carbamoylpyrrolidin-1-yl]-3-methyl-1-oxopentan-2-yl]carbamoyl}-3-[(2S)-3-heptanamido-2-[1-(4-{[(2-methylphenyl)carbamoyl]amino}phenyl)acetamido]propanamido]propanoic acid] ({NH(2-Me-phenyl)-CO}-[X1][Dap](Heptanoyl)D[Ile(3ξ)]P-NH2)
7 | 8.55 | – | C=C(C)C[C@H](NC(=O)Cc1ccc(NC(=O)Nc2ccccc2C)cc1)C(=O)N[C@@H](CC(=O)O)C(=O)N[C@H](C(=O)N1CCC[C@H]1C(N)=O)C(C)CC (stereo partly drawn) [(3S)-3-{[(2S,3S)-1-[(2S)-2-carbamoylpyrrolidin-1-yl]-3-methyl-1-oxopentan-2-yl]carbamoyl}-3-[(2S)-4-methyl-2-[1-(4-{[(2-methylphenyl)carbamoyl]amino}phenyl)acetamido]pent-4-enamido]propanoic acid] ({NH(2-Me-phenyl)-CO}-[X1][Leu(4,5-dehydro)]D[Ile(3ξ)]P-NH2)
8 | 8.72 | – | CCC(C)[C@H](NC(=O)[C@H](CC(=O)O)NC(=O)[C@H](CC(C)C)NC(=O)Cc1ccc(NC(=O)Nc2ccccc2C)cc1)C(=O)N1CCC[C@H]1C(N)=O (stereo partly drawn) [(3S)-3-{[(2S,3S)-1-[(2S)-2-carbamoylpyrrolidin-1-yl]-3-methyl-1-oxopentan-2-yl]carbamoyl}-3-[(2S)-4-methyl-2-[1-(4-{[(2-methylphenyl)carbamoyl]amino}phenyl)acetamido]pentanamido]propanoic acid] ({NH(2-Me-phenyl)-CO}-[X1]LD[Ile(3ξ)]P-NH2)
9 | 8.52 | – | CCC(C)[C@H](NC(=O)[C@H](CC(=O)O)NC(=O)[C@H](CCC(C)C)NC(=O)Cc1ccc(NC(=O)Nc2ccccc2C)cc1)C(=O)N1CCC[C@H]1C(N)=O (stereo partly drawn) [(3S)-3-{[(2S,3S)-1-[(2S)-2-carbamoylpyrrolidin-1-yl]-3-methyl-1-oxopentan-2-yl]carbamoyl}-3-[(2S)-5-methyl-2-[1-(4-{[(2-methylphenyl)carbamoyl]amino}phenyl)acetamido]hexanamido]propanoic acid] ({NH(2-Me-phenyl)-CO}-[X1][hLeu]D[Ile(3ξ)]P-NH2)
10 | 6.35 | – | CCCC(CCC)(NC(=O)Cc1ccc(NC(=O)Nc2ccccc2C)cc1)C(=O)N[C@@H](CC(=O)O)C(=O)N[C@H](C(=O)N1CCC[C@H]1C(N)=O)C(C)CC (stereo partly drawn) [(3S)-3-{[(2S,3S)-1-[(2S)-2-carbamoylpyrrolidin-1-yl]-3-methyl-1-oxopentan-2-yl]carbamoyl}-3-{2-[1-(4-{[(2-methylphenyl)carbamoyl]amino}phenyl)acetamido]-2-propylpentanamido}propanoic acid] ({NH(2-Me-phenyl)-CO}-[X1][Dpg]D[Ile(3ξ)]P-NH2)
11 | – | 8.49 | CCCC[C@H](NC(=O)Cc1ccc(NC(=O)Nc2ccccc2C)cc1)C(=O)N[C@@H](CC(=O)O)C(=O)N[C@H](C(=O)N1CSC[C@@H]1C(N)=O)C(C)CC (stereo partly drawn) [(3S)-3-{[(2S,3S)-1-[(4S)-4-carbamoyl-1,3-thiazolidin-3-yl]-3-methyl-1-oxopentan-2-yl]carbamoyl}-3-[(2S)-2-[1-(4-{[(2-methylphenyl)carbamoyl]amino}phenyl)acetamido]hexanamido]propanoic acid]

The next lines start with the molecule.

Row | SMILES | pIC50 | pIC50 (pH 7.5, 22 °C)
12 | CCCC[C@H](NC(=O)c1ccc(-c2cccc(NC(=O)Nc3ccccc3C)c2)o1)C(=O)N[C@@H](CC(=O)O)C(=O)N[C@H](C(=O)N1CCC[C@H]1C(N)=O)C(C)CC (stereo partly drawn) [(3S)-3-{[(2S,3S)-1-[(2S)-2-carbamoylpyrrolidin-1-yl]-3-methyl-1-oxopentan-2-yl]carbamoyl}-3-[(2S)-2-{[5-(3-{[(2-methylphenyl)carbamoyl]amino}phenyl)furan-2-yl]formamido}hexanamido]propanoic acid] ({NH(2-Me-phenyl)-CO}-[X7][Nle]D[Ile(3ξ)]P-NH2) | 6.49 | –
13 | CCCC[C@H](NC(=O)c1ccc(-c2ccc(NC(=O)Nc3ccccc3C)cc2)o1)C(=O)N[C@@H](CC(=O)O)C(=O)N[C@H](C(=O)N1CCC[C@H]1C(N)=O)C(C)CC (stereo partly drawn) [(3S)-3-{[(2S,3S)-1-[(2S)-2-carbamoylpyrrolidin-1-yl]-3-methyl-1-oxopentan-2-yl]carbamoyl}-3-[(2S)-2-{[5-(4-{[(2-methylphenyl)carbamoyl]amino}phenyl)furan-2-yl]formamido}hexanamido]propanoic acid] ({NH(2-Me-phenyl)-CO}-[X5][Nle]D[Ile(3ξ)]P-NH2) | 6.47 | –
14 | CCCC[C@H](NC(=O)Nc1cccc(NC(=O)Nc2ccccc2C)c1)C(=O)N[C@@H](CC(=O)O)C(=O)N[C@H](C(=O)N1CCC[C@H]1C(N)=O)C(C)CC (stereo partly drawn) [(3S)-3-{[(2S,3S)-1-[(2S)-2-carbamoylpyrrolidin-1-yl]-3-methyl-1-oxopentan-2-yl]carbamoyl}-3-[(2S)-2-{[(3-{[(2-methylphenyl)carbamoyl]amino}phenyl)carbamoyl]amino}hexanamido]propanoic acid] ({X9-CO}-[Nle]D[Ile(3ξ)]P-NH2) | 5.51 | –
15 | CCCC[C@H](NC(=O)Cc1ccc(NC(=O)Nc2ccccc2C)cc1)C(=O)N[C@@H](CC(=O)O)C(=O)N[C@H](C(=O)N1CC(OCc2ccccc2)C[C@H]1C(N)=O)C(C)CC (stereo partly drawn) [(3S)-3-{[(2S,3S)-1-[(2S)-4-(benzyloxy)-2-carbamoylpyrrolidin-1-yl]-3-methyl-1-oxopentan-2-yl]carbamoyl}-3-[(2S)-2-[1-(4-{[(2-methylphenyl)carbamoyl]amino}phenyl)acetamido]hexanamido]propanoic acid] | – | 8.28
16 | CCCC[C@H](NC(=O)Cc1ccc(NC(=O)Nc2ccccc2C)cc1)C(=O)N[C@@H](CC(=O)O)C(=O)N[C@H](C(=O)N1[C@@H](c2ccccc2)CC[C@H]1C(N)=O)C(C)CC (stereo partly drawn) [(3S)-3-{[(2S,3S)-1-[(2S,5R)-2-carbamoyl-5-phenylpyrrolidin-1-yl]-3-methyl-1-oxopentan-2-yl]carbamoyl}-3-[(2S)-2-[1-(4-{[(2-methylphenyl)carbamoyl]amino}phenyl)acetamido]hexanamido]propanoic acid] ({NH(2-Me-phenyl)-CO}-[X1][Nle]D[Ile(3ξ)][Pro(5R-Ph)]-NH2) | – | 7.42
17 | CCCC[C@H](NC(=O)Cc1ccc(NC(=O)Nc2ccccc2C)cc1)C(=O)N[C@@H](CC(=O)O)C(=O)N[C@H](C(=O)N1Cc2ccccc2C[C@@H]1C(N)=O)C(C)CC (stereo partly drawn) [(3S)-3-{[(2S,3S)-1-[(3R)-3-carbamoyl-1,2,3,4-tetrahydroisoquinolin-2-yl]-3-methyl-1-oxopentan-2-yl]carbamoyl}-3-[(2S)-2-[1-(4-{[(2-methylphenyl)carbamoyl]amino}phenyl)acetamido]hexanamido]propanoic acid] | – | 8.49
18 | CCCC[C@H](NC(=O)Cc1ccc(NC(=O)Nc2ccccc2C)cc1)C(=O)N[C@@H](CC(=O)O)C(=O)N[C@H](C(=O)N1CSC[C@H]1C(N)=O)C(C)CC (stereo partly drawn) [(3S)-3-{[(2S,3S)-1-[(4R)-4-carbamoyl-1,3-thiazolidin-3-yl]-3-methyl-1-oxopentan-2-yl]carbamoyl}-3-[(2S)-2-[1-(4-{[(2-methylphenyl)carbamoyl]amino}phenyl)acetamido]hexanamido]propanoic acid] | – | 8.51
